Reference: publication PMC13499021, “Cellular Assays for Dynamic Quantification of Deubiquitinase Activity and Inhibition” (Journal of molecular biology, 2023)
Where “and” joins values, the source holds several entries; their conditions need not be identical. Equal entries are not always repeated. Where two headings read alike, the source gives them in different places. Where a SMILES comes first, the peptide text is derived from it. The star is where a group is joined. Cbz = O=C(OCc1ccccc1)*

Tests used:
[1] = target: R-EGFP reporter (enhanced green fluorescent protein with an N-terminal arginine, made as the Ub-R-EGFP fusion)
KF LSCC cells = test system: KF LSCC cells; set-up: method as in PMID 34636321; conditions: cited from earlier work
GFPNb^R35Q-USP7 [2] = target: T1, GFPNb^R35Q-USP7 (Homo sapiens, UniProt Q93009); format: cell-based
GFPNb^R35Q-USP28 = format: cell-based
GFPNb^WT-USP7 = format: cell-based
GFPNb^E103Q-USP7 = format: cell-based
proteasome = format: cell-based
MM.1S cells = conditions: read-out: IC50, block of proliferation; cited from earlier work
GFPNb^R35Q-USP7 [3] = format: cell-based; conditions: read-out: cellular IC50
GFPNb^R35Q-USP7 [4] = format: cell-based
USP7 = conditions: cited from earlier work
[5] = test system: homologous enzyme (PL^pro) from NL63; conditions: cited from earlier work
[6] = test system: homologous enzyme (PL^pro) from MERS; conditions: cited from earlier work
SARS2-PL^pro = format: cell-based
SARS2 PL^pro = conditions: read-out: inhibitory concentrations (IC50); cited from earlier work
GFPNb^R35Q-USP7 [7] = target: T1, GFPNb^R35Q-USP7; format: cell-based; remark: listed apart in the source
purified USP7 = purified USP7 and Ub-AMC substrate; reported; cited from earlier work
[8] = 10 μM compound for 16 h, USP7 fused to WT GFP nanobody

T1 sequence (Q93009 with tags, fused parts or gaps limits assumed, stated change not applied): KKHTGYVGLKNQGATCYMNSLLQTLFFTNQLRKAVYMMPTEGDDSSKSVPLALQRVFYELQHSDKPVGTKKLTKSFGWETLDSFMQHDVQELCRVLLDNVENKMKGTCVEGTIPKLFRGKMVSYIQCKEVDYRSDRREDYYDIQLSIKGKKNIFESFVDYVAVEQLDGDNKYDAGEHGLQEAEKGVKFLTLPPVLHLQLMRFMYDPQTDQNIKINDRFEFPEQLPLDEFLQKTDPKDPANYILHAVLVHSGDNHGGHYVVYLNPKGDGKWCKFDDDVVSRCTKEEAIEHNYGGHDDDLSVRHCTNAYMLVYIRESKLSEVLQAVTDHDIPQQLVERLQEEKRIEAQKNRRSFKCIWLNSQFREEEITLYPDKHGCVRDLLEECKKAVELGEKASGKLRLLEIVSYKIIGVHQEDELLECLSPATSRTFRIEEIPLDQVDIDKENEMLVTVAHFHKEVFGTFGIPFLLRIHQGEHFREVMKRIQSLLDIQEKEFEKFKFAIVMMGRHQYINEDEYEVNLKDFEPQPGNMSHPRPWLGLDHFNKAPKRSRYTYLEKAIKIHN

## GFPNb E103Q-mCherry-USP7 fusion
[1]
  relative USP7 activity (EGFP stabilization, flow cytometry) in transfected 293T-Ub-R-C3 cells, against the WT nanobody fusion (fold less than the WT Nb fusion): 3

## GFPNb R35Q-mCherry-USP7 fusion
[1]
  relative USP7 activity (EGFP stabilization, flow cytometry) in transfected 293T-Ub-R-C3 cells, against the WT nanobody fusion (fold less than the WT Nb fusion): 2

## Cc1ccc2c(N)c(C(=O)N[C@H]3CCc4cc(N5CC6CCC(C5)N6)ccc4C3)sc2n1 [FT206]
KF LSCC cells
  proliferation of KF LSCC cells: inhibit proliferation
GFPNb^R35Q-USP7 [2]
  inhibition: no inhibition
GFPNb^R35Q-USP28
  dose-dependence of EGFP degradation rate: little dose-dependence
  inhibition: potent inhibition
  rate of degradation of the EGFP reporter: fastest degradation
GFPNb^R35Q-USP28; read-out: cellular IC50
  IC50: 0.104 µM and ~0.104 µM

## CC(=O)c1cc([N+](=O)[O-])c(Sc2ccc(F)cc2F)s1 [P22077]
GFPNb^WT-USP7; [8]
  change in EGFP fluorescence levels: no inhibitory activity
GFPNb^E103Q-USP7
  change in EGFP levels: no inhibitory activity

## GFPNb R35Q-mCherry (VHH)
[1]
  relative stabilization of EGFP in 293T-Ub-R-C3 cells (flow cytometry), WT nanobody-mCherry normalized to 1 (fold decrease against the WT nanobody): 50

## GFPNb E103Q-mCherry (VHH)
[1]
  relative stabilization of EGFP in 293T-Ub-R-C3 cells (flow cytometry), WT nanobody-mCherry normalized to 1 (fold decrease against the WT nanobody): 100

## CC(C)C[C@@H](C=O)NC(=O)[C@H](CC(C)C)NC(=O)[C@H](CC(C)C)NC(=O)OCc1ccccc1 [MG132] (Cbz-Leu-Leu-Leu-aldehyde)
proteasome
  elevation of EGFP level over baseline: over 50 fold

## O=C(C[C@@H](C(F)F)n1ccc(F)n1)N1CCC(O)(Cn2cnc3c(cnn3-c3ccc(F)cc3)c2=O)CC1 [FT671]
MM.1S cells
  IC50: 0.033 µM
GFPNb^R35Q-USP7 [3]
  IC50: 0.014 µM
GFPNb^R35Q-USP7 [4]
  change in EGFP levels: substantial decrease
GFPNb^WT-USP7
  change in EGFP fluorescence levels: weak (if any) decrease
USP7
  IC50: 0.052 µM
GFPNb^E103Q-USP7
  change in EGFP levels: substantial decrease

## GRL0617
[5]
  activity against homologous enzyme: inactive
[6]
  activity against homologous enzyme: inactive
SARS2-PL^pro
  start of time dependent decrease in EGFP signal post-treatment: 2 h
SARS2 PL^pro
  IC50: 2.1 to 2.3 µM

## XL177A
GFPNb^R35Q-USP7 [2]; read-out: cellular IC50
  IC50: 0.192 µM
GFPNb^R35Q-USP7 [7]
  change in EGFP levels: substantial decrease
GFPNb^WT-USP7; [8]
  change in EGFP fluorescence levels: weak (if any) decrease
Purified USP7
  IC50: 0.00034 µM
GFPNb^E103Q-USP7
  change in EGFP levels: substantial decrease
